Source: patent US7054685B2, “Method and apparatus for reducing electroporation-mediated muscle reaction and pain response” (Genetronics, Inc., priority 1999, dated 2006)

Legend:
[1] = octanol and water; cited from earlier work
HEp-2 tumors = test: Electroporation therapy of HEp-2 tumors implanted subcutaneously in nude mice (intratumoral drug plus bipolar square pulses); type: in vivo, BALB/c A nu/nu mice
Experimental: BALB/c A nu/nu mice were surgically implanted with HEp-2 tumors in a subcutaneous sac made in the right flank of nude mice. The tumors 34 were allowed to grow and were treated when their average size was about 80 mm^3. The drug, bleomycin, 0.5 units dissolved in 0.15 ml of saline, was injected in each mouse intratumorally using a 30 gauge needle. The drug was injected very slowly at the tumor base and the needle direction rotated (fanning technique) for uniform drug distribution in the tumor 34. The mice in the control were only pulsed D−E+; D=Drug, E=Electric field, +/−denote presence or absence, respectively) while those in the treated group were pulsed and received drug (D+E+). A time lapse of 10+/−1 minute was maintained between the drug injection and the application of electric pulse to allow bleomycin to spread uniformly throughout the tumor 34. The electrical pulses, generated by the prototype bipolar square wave pulse generator, were delivered to the tumor 34 through a 6-needle array (see for example, U.S. Pat. No. 5,702,359 herein incorporated by reference), inserted to the depth of the tumor 34. […] The mice in both the control and pulse-treated groups were monitored every day for mortality and sign of any other disease.
FIG. 16 illustrates the results for the experimental and control groups.

bleomycin
log P [1]: very negative | tumor volume (HEp-2 tumors; D+E+ group, versus substantial increase in control group D-E+): decreased | treated mice with complete tumor regression (HEp-2 tumors; D+E+ group, bleomycin 0.5 units in 0.15 ml saline intratumorally, bipolar square pulses via 6-needle array 10+/-1 min later, 65 days following treatment, 7/8 mice): 87.5% | treated mice with partial regression (HEp-2 tumors; D+E+ group, bleomycin 0.5 units intratumorally plus bipolar square pulses, 65 days following treatment, 1/8 mice): 12.5% | tumor reaction to electroporation therapy (HEp-2 tumors; nearly all the mice treated by both the drug (D) and the pulse (E)): severe early edema, and later necrosis of the tumor | extent of partial tumor regression (HEp-2 tumors; the 1/8 D+E+ mouse with partial regression): > 80%
